Experimental data reported in patent US11078246B2, “Peptides binding to Bfl-1” (Dana-Farber Cancer Institute, Inc., priority 2015, dated 2021).
Positions of bridges follow the written chain, without caps; N, C: chain ends. Non-standard residues stand in square brackets, D forms with d. No end group written: not given here. S5 = C=CCCC[C@](C)(N)C(=O)O

Legend:
[1] = molecular target: T1, Bfl-1 (Homo sapiens, UniProt Q16548); experiment: Bfl-1:Warhead SAHB conjugation assay; format: binding; details: conjugation with Bfl-1
T1 sequence (Q16548 1-175): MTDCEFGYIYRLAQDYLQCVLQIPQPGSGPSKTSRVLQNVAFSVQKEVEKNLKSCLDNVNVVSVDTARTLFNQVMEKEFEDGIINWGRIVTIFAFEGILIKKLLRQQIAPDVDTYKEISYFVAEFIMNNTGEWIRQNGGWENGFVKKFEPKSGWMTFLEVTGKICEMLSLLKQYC
Procedure: Proteins were serially diluted from 1 μM, then combined with FITC-labeled SAHB and polarization measured at 5 min on a microplate reader. We then calculated dissociation constants (KD) by nonlinear regression analysis of dose-response curves. […] Samples were then combined with loading dye, run on a 12% Bis-Tris SDS-PAGE, and stained with Coomassie. The same setup was used for all antiapoptotic proteins tested.

[2] = molecular target: T1, Bfl-1; experiment: Competitive binding assay after pre-forming the Bfl-1:NOXA disulfide bond; details: Bfl-1:NOXA disulfide bond pre-formed
Procedure: The functional impact of the Bfl-1:NOXA disulfide bond formation was evaluated using competitive binding assays and liposomal release assays.

[3] = molecular target: T2, BFL-1ΔC (Homo sapiens, UniProt Q16548); experiment: In vitro covalent conjugation assay (DTT reduction, GSSG oxidation); format: binding; details: DTT 10 mM then GSSG 12 mM; Coomassie, FITC scan
T2 construct: cDNA encoding BFL-1ΔC (aa 1-153) was cloned into the pET19b expression vector; made in house; host or cells: Escherichia coli BL21(DE3) LOBSTR
T2 sequence (Q16548 1-153): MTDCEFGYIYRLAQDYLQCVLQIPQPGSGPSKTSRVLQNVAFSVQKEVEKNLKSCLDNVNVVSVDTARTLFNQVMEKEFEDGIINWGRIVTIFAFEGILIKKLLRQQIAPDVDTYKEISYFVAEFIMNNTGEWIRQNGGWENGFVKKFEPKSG
Procedure: Biolayer Interferometry: Binding analyses of NOXA peptide interactions with BFL-1ΔC were performed on an Octet RED384 system (Fortebio, Menlo Park, Calif.) at 30° C. Super streptavidin (SSA) tips were prewetted in 1× kinetics buffer (PBS, pH 7.4, 0.01% BSA, 0.002% Tween-20) and then conjugated to NOXA SAHBs bearing an N-terminal biotin-PEG linker (10 μg/mL). Excess streptavidin was quenched by incubation with 2 μg/mL biocytin. The tips were then washed with kinetics buffer and soaked in a serial dilution of BFL-IAC for 10 min to measure association rate, followed by a 15 min incubation in kinetics buffer to measure dissociation rate. Dissociation constants were calculated using Octet Data Analysis version 9.0. […] After this incubation in a reducing environment, the mixture was diluted 5-fold into 50 mM Tris pH 8.0, 100 mM NaCl, 12 mM GSSG and incubated in the dark for an additional 30 min at RT. […] The gel was rinsed with water, subjected to FITC scan (Typhoon FLA 9500, GE Healthcare) and then Coomassie staining.

O=C(O)[C@@H]1CCCCN1 [L-homoproline] was tested, and the “covalent binding efficiency (comparative)” value (from here on “covalent binding efficiency”) [1] was “less efficient”.

In the case of “NOXA SAHBA C25S: stapled NOXA BH3 peptide with C25S substitution; SEQ ID NO:13 (AELEVESATQLR[S5]FGD[S5]LNFRQKLL; staple 13-17)”, the “availability of the Bfl-1 binding pocket to another FITC BH3 domain” value [2] is reported as “abrogated these inhibitory effects” and the “molecular weight shift (disulfide adduct) of wild-type BFL-1ΔC” value [3] is reported as “not”.

With CN(C)C/C=C/C(=O)O [trans-4-dimethylaminocrotonic acid] the “covalent binding efficiency” value [1] was “less efficient”.

In the case of O=C(O)[C@H]1CCCCN1 [D-homoproline], the “covalent binding efficiency” value [1] is reported as “less efficient”.
